Data as given in paper PMC9120017, “Inhibition mechanism of the chloride channel TMEM16A by the pore blocker 1PBC” (Nature Communications, 2022).
Where two headings read alike, the source gives them in different places.

Target: T1, wild-type mouse TMEM16A (Mus musculus, UniProt Q8BHY3)
T1 construct: expressed in transfected cells; host or cells: HEK293T
T1 sequence (Q8BHY3 1-960): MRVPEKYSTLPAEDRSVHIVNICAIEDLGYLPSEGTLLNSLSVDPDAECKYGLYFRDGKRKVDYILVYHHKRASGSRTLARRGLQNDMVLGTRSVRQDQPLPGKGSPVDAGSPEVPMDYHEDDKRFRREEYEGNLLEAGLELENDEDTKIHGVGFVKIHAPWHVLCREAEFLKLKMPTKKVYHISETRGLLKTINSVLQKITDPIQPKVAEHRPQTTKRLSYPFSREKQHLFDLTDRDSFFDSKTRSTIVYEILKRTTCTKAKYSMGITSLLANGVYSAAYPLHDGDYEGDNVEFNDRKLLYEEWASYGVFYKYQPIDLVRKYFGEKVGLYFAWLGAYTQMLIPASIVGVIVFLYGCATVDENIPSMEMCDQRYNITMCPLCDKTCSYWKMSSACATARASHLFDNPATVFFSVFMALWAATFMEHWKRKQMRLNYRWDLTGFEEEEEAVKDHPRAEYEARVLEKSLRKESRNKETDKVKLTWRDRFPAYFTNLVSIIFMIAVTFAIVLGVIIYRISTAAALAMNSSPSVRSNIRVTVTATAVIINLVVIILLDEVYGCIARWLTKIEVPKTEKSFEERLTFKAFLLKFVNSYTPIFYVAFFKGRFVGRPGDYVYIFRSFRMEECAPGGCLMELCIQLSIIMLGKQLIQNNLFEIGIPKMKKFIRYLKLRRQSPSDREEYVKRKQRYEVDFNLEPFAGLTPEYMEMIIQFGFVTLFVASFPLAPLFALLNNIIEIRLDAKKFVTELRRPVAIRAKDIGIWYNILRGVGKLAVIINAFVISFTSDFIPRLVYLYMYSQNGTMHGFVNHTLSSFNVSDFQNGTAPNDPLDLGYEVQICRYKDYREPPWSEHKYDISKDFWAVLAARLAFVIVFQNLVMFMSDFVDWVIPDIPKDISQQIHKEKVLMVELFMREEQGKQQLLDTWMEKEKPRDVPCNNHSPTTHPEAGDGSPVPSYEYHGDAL
Assay: Inside-out patch recording of 1PBC block, wild-type TMEM16A
Type: cell-based
Conditions: for remaining activity at 100 µM: read-out: I/Imax
Experimental: HEK293T cells (ATCC CRL-1573) were maintained in Dulbecco’s modified Eagle’s medium (DMEM; Sigma-Aldrich) supplemented with 10 U ml^−1 penicillin, 0.1 mg ml^−1 streptomycin (Sigma-Aldrich), 2 mM L-glutamine (Sigma-Aldrich), and 10% FBS (Sigma-Aldrich) in a humidified atmosphere containing 5% CO2 at 37 °C. HEK293S GnTI^− cells (ATCC CRL-3022) were maintained in HyClone HyCell TransFx-H medium (GE Healthcare) supplemented with 10 U ml^−1 penicillin, 0.1 mg ml^−1 streptomycin, 4 mM L-glutamine, 0.15% poloxamer 188 (Sigma-Aldrich), and 1% FBS in an atmosphere containing 5% CO2 at 185 rpm at 37 °C. The ac splice variant of mouse TMEM16A (UniProt ID: Q8BHY3), mouse TMEM16B (UniProt ID: Q8CFW1), or mouse TMEM16F (UniProt ID: Q6P9J9) bearing a 3C cleavage site, a Venus YFP, a Myc tag, and a Streptavidin-binding peptide (SBP) downstream of the open reading frame in a modified pcDNA3.1 vector (Invitrogen) were used as described previously[21],[31]. Mutations were introduced using a modified QuikChange method[58] and were verified by sequencing.
HEK293T cells were transfected with 3–4 μg DNA per 6 cm Petri dish using the calcium phosphate co-precipitation method and were used within 24–96 h after transfection. Recordings were performed on inside-out patches excised from HEK293T cells expressing the construct of interest. Patch pipettes were pulled from borosilicate glass capillaries (O.D. 1.5 mm, I.D. 0.86 mm, Sutter Instrument) and were fire-polished with a microforge (Narishige) before use. Pipette resistance was typically 3–8 MΩ when filled with the recording solutions detailed below. Seal resistance was typically 4 GΩ or higher. Voltage-clamp recordings were made using Axopatch 200B, Digidata 1550, and Clampex 10.7 (Molecular Devices). Analog signals were filtered with the in-built 4-pole Bessel filter at 10 kHz and were digitized at 20 kHz. Solution exchange was achieved using a gravity-fed system through a theta glass pipette mounted on an ultra-fast piezo-driven stepper (Siskiyou). […] All recordings were performed at 20 °C.
A symmetrical ionic condition was used throughout. Stock solution with Ca^2+-EGTA contained 150 mM NaCl, 5.99 mM Ca(OH)2, 5 mM EGTA, and 10 mM HEPES at pH 7.40. Stock solution with EGTA contained 150 mM NaCl, 5 mM EGTA, and 10 mM HEPES at pH 7.40. Free Ca^2+ concentrations were adjusted by mixing the stock solutions at the required ratios calculated using the WEBMAXC program (http://web.stanford.edu/~cpatton/webmaxcS.htm). Patch pipettes were filled with the stock solution with Ca^2+-EGTA, which has a free Ca^2+ concentration of 1 mM. 1PBC (ChemBridge) stock was reconstituted in anhydrous DMSO (Sigma-Aldrich) at 100 mM and stored at −20 °C. Working solutions with 1PBC were prepared by serial dilution. Unless otherwise stated, experiments were performed at a saturating Ca^2+ concentration as shown in Supplementary Table 1 and the primary data were corrected for current rundown as described previously[21],[25].
Concentration-response relations, obtained from the ratio of the I-V plots before and after the application of the blocker, were fitted to the Hill equation,1 I/Imax=1/1+IC50/[blocker]^h where I/Imax is the normalized current responses, IC50 defines the concentration at which inhibition is at its half-maximum, and h is the Hill coefficient.

[1] = 100 µM 1PBC, -100 mV, 2 µM Ca2+
[2] = 100 µM 1PBC, -120 mV, 2 µM Ca2+
[3] = 100 µM 1PBC, -140 mV, 2 µM Ca2+

Structure (SMILES): N#Cc1c(C(F)(F)F)cc(O)n2c1nc1ccccc12 [1PBC]
- I/Imax scaled to open probability (100 µM 1PBC, 2 µM Ca2+, 80 mV): 0.02162
- Steady-state current (normalized) (100 µM 1PBC, 20 mV, 2 µM Ca2+): 0.006925
- remaining activity at 100 µM (100 µM 1PBC, 20 mV, 2 µM Ca2+): 3.56%
- Steady-state current (normalized) (100 µM 1PBC, 40 mV, 2 µM Ca2+): 0.0112
- remaining activity at 100 µM (100 µM 1PBC, 40 mV, 2 µM Ca2+): 2.97%
- Steady-state current (normalized) (100 µM 1PBC, 60 mV, 2 µM Ca2+): 0.0148
- remaining activity at 100 µM (100 µM 1PBC, 60 mV, 2 µM Ca2+): 2.68%
- Steady-state current (normalized) (100 µM 1PBC, 80 mV, 2 µM Ca2+): 0.01763
- remaining activity at 100 µM (100 µM 1PBC, 80 mV, 2 µM Ca2+): 2.49%
- Steady-state current (normalized) (100 µM 1PBC, 100 mV, 2 µM Ca2+): 0.02038
- remaining activity at 100 µM (100 µM 1PBC, 100 mV, 2 µM Ca2+): 2.4%
- Steady-state current (normalized) (100 µM 1PBC, 120 mV, 2 µM Ca2+): 0.024
- remaining activity at 100 µM (100 µM 1PBC, 120 mV, 2 µM Ca2+): 2.47%
- Steady-state current (normalized) (100 µM 1PBC, 140 mV, 2 µM Ca2+): 0.02832
- remaining activity at 100 µM (100 µM 1PBC, 140 mV, 2 µM Ca2+): 2.6%
- Steady-state current (normalized) (100 µM 1PBC, -20 mV, 2 µM Ca2+): -0.01026
- remaining activity at 100 µM (100 µM 1PBC, -20 mV, 2 µM Ca2+): 5.33%
- Steady-state current (normalized) (100 µM 1PBC, -40 mV, 2 µM Ca2+): -0.02602
- remaining activity at 100 µM (100 µM 1PBC, -40 mV, 2 µM Ca2+): 6.7%
- Steady-state current (normalized) (100 µM 1PBC, -60 mV, 2 µM Ca2+): -0.04778
- remaining activity at 100 µM (100 µM 1PBC, -60 mV, 2 µM Ca2+): 8.25%
- Steady-state current (normalized) (100 µM 1PBC, -80 mV, 2 µM Ca2+): -0.07707
- remaining activity at 100 µM (100 µM 1PBC, -80 mV, 2 µM Ca2+): 10%
- Steady-state current (normalized) [1]: -0.1118
- remaining activity at 100 µM [1]: 11.8%
- Steady-state current (normalized) [2]: -0.1551
- remaining activity at 100 µM [2]: 13.9%
- Steady-state current (normalized) [3]: -0.2042
- remaining activity at 100 µM [3]: 15.9%
- IC50 (20 mV, 2 µM Ca2+): 3.42 µM
- IC50 (40 mV, 2 µM Ca2+): 2.77 µM
- IC50 (60 mV, 2 µM Ca2+): 2.32 µM
- IC50 (80 mV, 2 µM Ca2+): 2.06 µM
- IC50 (100 mV, 2 µM Ca2+): 2 µM
- IC50 (120 mV, 2 µM Ca2+): 2.1 µM
- IC50 (140 mV, 2 µM Ca2+): 2.41 µM
- IC50 (-20 mV, 2 µM Ca2+): 5.63 µM
- IC50 (-40 mV, 2 µM Ca2+): 7.34 µM
- IC50 (-60 mV, 2 µM Ca2+): 9.2 µM
- IC50 (-80 mV, 2 µM Ca2+): 11.6 µM
- IC50 (-100 mV, 2 µM Ca2+): 14.1 µM
- IC50 (-120 mV, 2 µM Ca2+): 17.2 µM
- IC50 (-140 mV, 2 µM Ca2+): 19.9 µM
- Selectivity for anion channels of the TMEM16 family over the scramblase TMEM16F (TMEM16A and TMEM16B blocked, TMEM16F current not): selective for anion channels of the TMEM16 family over the scramblase TMEM16F
- Electrical distance of 1PBC block (functional experiments): 0.2-0.25
- Membrane permeability (neutral pH, implied from block from the extracellular side after intracellular application): freely membrane-permeable
- IC50 (zero mV, saturating Ca2+ concentration (2 µM), applied from the intracellular side): ~4 µM
